Data taken from patent US20090018106A1, “INTRAVENOUS FORMULATIONS OF PYRIDOXAL 5'- PHOSPHATE AND METHOD OF PREPARATION” (Medicure International Inc., priority 2005, published 2009).
Entries after “also recorded” stand apart in the source; their conditions may differ. Where two headings read alike, the source gives them in different places.

Assays:
Assay type in all cases: in vivo, human
[1] = Single intravenous dose escalation of P5P, plasma pharmacokinetics (Examples Two and Three); settings: for Cmax / MRT / Tmax / Vd / clearance / AUC / half-life / AUC(0-t): both sexes, human, plasma; for Cmax / MRT / Tmax / Vd / clearance / AUC / half-life: iv; for AUC(0-t): read-out: AUC-T
Experimental: A phase one clinical trial was conducted to compare the pharmacokinetics of intravenously administered P5P and orally administered P5P. The trial was a single dose escalation study.
For intravenous administration, P5P was administered by bolus injection under fasting conditions. The following doses of P5P were studied: 1, 5, 10, and 20 mg/kg. 6 subjects were assigned to each dosage group.
P5P, pyridoxal, and 4-pyridoxic acid were evaluated in both plasma and urine over a 24 hour interval following either intravenous or oral dosing. The results are set out below in Tables 2 and 3.
Methodology—This was a single-blind, single-dose escalation, non-randomized, 4-phase, non-crossover study designed to evaluate the safety and […] subjects under fasting conditions and to estimate pharmacokinetic parameters of P5P.
Subjects were assigned to one of the four groups (six subjects per group) under fasting conditions.
Concentrations of pyridoxal-5′-phosphate (P5P) were measured from the plasma samples collected over a 24-bour interval after dosing in each phase.
Pharmacokinetic parameters: AUCt, AUCinf, Cmax, Tmax, Kel, Thalf, Vd, CL, MRT and F were estimated based on pyridoxal-5′-phosphate (P5P) plasma levels for each subject that was in the final data set.
The test product used was a P5P Intravenous Injectable Solution, 50 mg/ml, which was prepared in accordance with the methods of Example 1 (CanAm BioResearch Inc. Canada); Lot No.: LP1459: Manufacturing Date: 12/03. A single 1, 5, 10 or 20 mg/kg dose was given by intravenous injection. The duration of treatment was a single dose.
Secondary Endpoint—Pharmacokinetic (PK) Parameters—Plasma concentrations of pyridoxal-5′-phosphate (P5P) were measured by a validated analytical method. Based on these concentration levels, AUCt, AUCinf, Cmax, Tmax, Kel, Thalf, Vd, CL, MRT and F were estimated.
Statistical Methods—Descriptive statistics were calculated by treatments for the estimated pharmacokinetic parameters.

[2] = Safety and tolerability of single intravenous doses of P5P (Example Three)
Experimental: Methodology—This was a single-blind, single-dose escalation, non-randomized, 4-phase, non-crossover study designed to evaluate the safety and tolerability of P5P intravenous injectable solution at doses of 1, 5, 10, 20 mg/kg, administered to four groups of healthy male and female subjects under fasting conditions and to estimate pharmacokinetic parameters of P5P.
Safety data were collected for each subject throughout the study by recording vital signs, ECGs and reported adverse events.
Primary Endpoint—Safety Parameters—The safety parameters investigated in this study were vital signs measurements (blood pressure, pulse rate), ECG measurements (1, 2 and 12 hours post-dose), platelet function testing, and severity and causality of adverse events experienced by subjects during the study period and laboratory assessments (clinical chemistry, hematology, urinalysis).

[3] = Once daily intravenous 10 mg/kg P5P for four days, urinary excretion and renal clearance (Example Four); settings: 10 mg/kg iv once daily, 4 days, P5P uncorrected, mean; for CL renal: human, urine and plasma, iv, 10 mg/kg, read-out: CLR, renal clearance (converted)
Experimental: (§1) Data sets analyzed—Six (6) healthy, adult non-smokers were administered intravenously a single daily dose of 10 mg/kb of P5P for four consecutive days and completed the study. In accordance with the study protocol, data from all subjects who completed the study were used for pharmacokinetic and statistical analysis.
Analytical Methods—Plasma and urine samples were used for analysis. P5P, PAL, and PA levels were determined by HPLC/FLD. The quantitation level was 5 ng/mL for plasma and 100 ng/mL for urine. The sample analysis calibration curve range was 5 ng/mL to 5000 ng/mL for plasma and 100 ng/mL to 50,000 ng/mL for urine.
Total and Renal Clearance—Total body clearance was estimated for P5P and was calculated as Dose/AUC0-inf.

[4] = Safety evaluation of once daily intravenous 10 mg/kg P5P for four days (Example Four)
Experimental: as §1
Safety Methods—The safety parameters investigated in this study were: adverse events, vital sign measurements, ECGs, physical examination and standard laboratory evaluations.

[5] = 1 mg/kg, Group 1, P5P 1 mg/kg single iv, plasma P5P, mean
[6] = 1 mg/kg, P5P 1 mg/kg single iv bolus, fasting
[7] = 5 mg/kg, Group 2, P5P 5 mg/kg single iv, plasma P5P, mean
[8] = 5 mg/kg, P5P 5 mg/kg single iv bolus, fasting
[9] = 10 mg/kg, Group 3, P5P 10 mg/kg single iv, plasma P5P, mean
[10] = 10 mg/kg, Group 4, dose 10 mg/kg, single iv, plasma P5P, mean
[11] = 10 mg/kg, P5P 10 mg/kg single iv bolus, fasting
[12] = 20 mg/kg, P5P 20 mg/kg single iv bolus, fasting
[13] = ln(pK Parameter) = b0 + b1 * ln (Dose)
[14] = ln(pK Parameter) = b0 + b1 * ln (Dose), single iv 1-20 mg/kg

Cc1ncc(COP(=O)(O)O)c(C=O)c1O [P5P, Pyridoxal 5′-phosphate, reference compound]
Kel ([1]; Group 1, P5P 1 mg/kg single iv, plasma P5P, mean): 0.14 h⁻¹
Kel ([1]; Group 2, P5P 5 mg/kg single iv, plasma P5P, mean): 0.118 h⁻¹
Kel ([1]; Group 3, P5P 10 mg/kg single iv, plasma P5P, mean): 0.12 h⁻¹
Kel ([1]; Group 4, dose 10 mg/kg, single iv, plasma P5P, mean): 0.14 h⁻¹
Cmax [1, 5]: 20 µg/mL
MRT [1, 5]: 3.73 h
Tmax [1, 5]: 8.4 min
Vd [1, 5]: 13 L
clearance [1, 5]: 29.3 mL/min
AUC ([1]; 1 mg/kg, Group 1, P5P 1 mg/kg single iv, plasma P5P, mean, read-out: AUC (O-t)): 38.4 µg·h/mL
AUC ([1]; 1 mg/kg, Group 1, P5P 1 mg/kg single iv, plasma P5P, mean, read-out: AUC (o-inf)): 39.1 µg·h/mL
half-life ([1]; 1 mg/kg, Group 1, P5P 1 mg/kg single iv, plasma P5P, mean, read-out: T½ (converted)): 5.11 h
Cmax [1, 6]: 20 ± 2.95 µg/mL
Tmax [1, 6]: 8.4 ± 4.2 min
half-life ([1]; 1 mg/kg, P5P 1 mg/kg single iv bolus, fasting, read-out: T½ (converted)): 5.11 ± 0.98 h
Cmax [1, 7]: 98.8 µg/mL
MRT [1, 7]: 3.52 h
Tmax [1, 7]: 8.4 min
Vd [1, 7]: 16.3 L
clearance [1, 7]: 32.1 mL/min
AUC ([1]; 5 mg/kg, Group 2, P5P 5 mg/kg single iv, plasma P5P, mean, read-out: AUC (O-t)): 173 µg·h/mL
AUC ([1]; 5 mg/kg, Group 2, P5P 5 mg/kg single iv, plasma P5P, mean, read-out: AUC (o-inf)): 176 µg·h/mL
half-life ([1]; 5 mg/kg, Group 2, P5P 5 mg/kg single iv, plasma P5P, mean, read-out: T½ (converted)): 5.89 h
Cmax [1, 8]: 98.8 ± 16 µg/mL
Tmax [1, 8]: 8.4 ± 4.2 min
half-life ([1]; 5 mg/kg, P5P 5 mg/kg single iv bolus, fasting, read-out: T½ (converted)): 5.89 ± 0.39 h
Cmax [1, 9]: 220 µg/mL
MRT [1, 9]: 3.11 h
Tmax [1, 9]: 6 min
Vd [1, 9]: 18 L
clearance [1, 9]: 35.2 mL/min
AUC ([1]; 10 mg/kg, Group 3, P5P 10 mg/kg single iv, plasma P5P, mean, read-out: AUC (o-inf)): 312 µg·h/mL
half-life ([1]; 10 mg/kg, Group 3, P5P 10 mg/kg single iv, plasma P5P, mean, read-out: T½ (converted)): 5.81 h
Cmax [1, 10]: 424 µg/mL
MRT [1, 10]: 3.32 h
Tmax [1, 10]: 9 min
Vd [1, 10]: 17.5 L
clearance [1, 10]: 39.8 mL/min
AUC ([1]; 10 mg/kg, Group 4, dose 10 mg/kg, single iv, plasma P5P, mean, read-out: AUC (O-t)): 577 µg·h/mL
AUC ([1]; 10 mg/kg, Group 4, dose 10 mg/kg, single iv, plasma P5P, mean, read-out: AUC (o-inf)): 585 µg·h/mL
half-life ([1]; 10 mg/kg, Group 4, dose 10 mg/kg, single iv, plasma P5P, mean, read-out: T½ (converted)): 5.03 h
Cmax [1, 11]: 220 ± 9.52 µg/mL
Tmax [1, 11]: 6 ± 1.8 min
half-life ([1]; 10 mg/kg, P5P 10 mg/kg single iv bolus, fasting, read-out: T½ (converted)): 5.87 ± 0.89 h
Cmax [1, 12]: 424 ± 96.9 µg/mL
Tmax [1, 12]: 9 ± 4.2 min
half-life ([1]; 20 mg/kg, P5P 20 mg/kg single iv bolus, fasting, read-out: T½ (converted)): 5.03 ± 0.72 h
half-life ([1]; over all single iv doses of P5P (1-20 mg/kg), read-out: apparent elimination half-life (converted)): 5 to 6 h
AUC(0-t) ([1]; P5P 1 mg/kg single iv bolus, fasting): 38.4 ± 4.61 µg·h/mL
AUC(0-t) ([1]; P5P 5 mg/kg single iv bolus, fasting): 173 ± 31.9 µg·h/mL
AUC(0-t) ([1]; P5P 10 mg/kg single iv bolus, fasting): 308 ± 45.5 µg·h/mL
AUC(0-t) ([1]; P5P 20 mg/kg single iv bolus, fasting): 577 ± 62.5 µg·h/mL
Significance of b1, lnAUCi [1, 13]: <0.0001
Significance of b1, lnCl [1, 13]: 0.0128
Significance of b1, lnCmax [1, 13]: <0.0001
Significance of b1, lnMRT [1, 13]: 0.1568
Significance of b1, lnThalf [1, 13]: 0.6177
Coef. for Dose (b1), lnAUCi [1, 14]: 0.90
Coef. for Dose (b1), lnCl [1, 14]: 0.10
Coef. for Dose (b1), lnCmax [1, 14]: 1.03
Coef. for Dose (b1), lnMRT [1, 14]: −0.05
Coef. for Dose (b1), lnThalf [1, 14]: 0.02
Intercept (b0), lnAUCi [1, 14]: 3.67
Intercept (b0), lnCl [1, 14]: 7.44
Intercept (b0), lnCmax [1, 14]: 2.98
Intercept (b0), lnMRT [1, 14]: 1.29
Intercept (b0), lnThalf [1, 14]: 1.67
bioavailability, intravenous versus oral ([1]; single iv bolus vs single oral tablets): greater when intravenously administered rather than orally administered
safety and tolerability ([2]; single iv dose, doses up to 20 mg/kg): safe and well tolerated
common side effects observed ([2]; single iv doses 1-20 mg/kg): nausea, vomiting and stomach upset
Ae0-t, total amount excreted in urine ([3]; Day 1): 848625 ng
Ae0-t, total amount excreted in urine ([3]; Day 4): 558650 ng
CL renal ([3]; Day 1): 0.0465 mL/min
CL renal ([3]; Day 4): 0.029 mL/min
clinically significant elevated white blood cells (WBC) in urine (pyuria) ([4]; 10 mg/kg iv once daily, 4 days): observed for two subjects
diarrhea or vomiting ([4]; 10 mg/kg iv once daily, 4 days): No diarrhea or vomiting was reported
overall safety profile ([4]; 10 mg/kg iv once daily, 4 days): No serious, severe, or significant adverse events; also recorded: well tolerated with no serious or lasting treatment related effects
abnormal taste in the mouth ([4]; 1 subject, 10 mg/kg iv once daily, 4 days): 16.7%
dizziness (feels dizzy and dizziness) ([4]; 2 subjects, 10 mg/kg iv once daily, 4 days): 33.3 % of subjects
nausea ([4]; 3 subjects, 10 mg/kg iv once daily, 4 days): 50.0 % of subjects
inflammation at injection site ([4]; 3 subjects, judged unrelated to the study medication): 50.0 % of subjects
total adverse events ([4]; six subjects, 10 mg/kg iv once daily, 4 days): 40
